Molecules are shown by their SMILES. Where “and” joins values, the source holds several entries; their conditions need not be identical. Equal entries are not always repeated.

Drawing on the COVID Moonshot data (paper PMC7615835), this text covers CC50, IC90 and IC50 for seven molecules.

The conditions of assay [1]: calu3.
Assay [2] deals with SARS-CoV-2 (SARS-CoV-2). Conditions: vero6.
For assay [3] the following is noted: a549.
The conditions of assay [4]: helaace2.
The subject of assay [5] is SARS-CoV-2 (SARS-CoV-2). Conditions: helaace2.

In assay [1], `Cc1ccncc1NC(=O)Cc1cc(Cl)cc(OC2CC(=O)N2)c1` (configuration not stated) returned a CC50 of 63500 nM.
In assay [2], `NC(=O)CN1Cc2ccc(Cl)cc2C(C(=O)Nc2cncc3ccccc23)C1` (configuration not stated) showed an IC90 of under 40 nM.
`O=C(Nc1cncc2ccccc12)C1CCNc2cc(Cl)c(Cl)cc21` (configuration not stated) gave a CC50 in assay [3] of under 22.9 nM.
Molecule `O=C(Nc1cncc2ccccc12)C1CN(S(=O)(=O)CC2CNC2)Cc2ccc(Cl)cc21` (configuration not stated) showed a CC50 in assay [4] of over 20000 nM.
On to `O=C1NCC(C(=O)Nc2cncc3ccccc23)c2cc(Cl)ccc21` (configuration not stated), for which the IC90 in assay [2] was > 5000 nM and 2280 nM.
`CNC(=O)c1cc2c(NC(=O)C3CCOc4ccc(Cl)cc43)cncc2s1` (configuration not stated) gave an IC50 in assay [2] of 568 nM.
In the case of `CCC(CC)COC(=O)[C@H](C)NP(=O)(OC[C@H]1O[C@@](C#N)(c2ccc3c(N)ncnn23)[C@H](O)[C@@H]1O)Oc1ccccc1` (stereo in doubt), the IC50 in assay [5] was 240 nM.
